What was measured:
[1] = test system: Amaranthus retroflexus (AMARE), Redroot pigweed; test: Greenhouse post-emergence herbicidal action (Example 149); assay type: in vivo; conditions: 15.6 or 7.8 g/ha of a.i.
Protocol: (§1) The culture containers used were plastic flowerpots containing loamy sand with approximately 3.0% of humus as substrate. The seeds of the test plants were sown separately for each species.
(§2) For the post-emergence treatment, the test plants were grown to a plant height of from 3 to 15 cm, depending on the plant habit, and only then treated with the active ingredients which had been suspended or emulsified in water. To this end, the test plants were either sown directly and grown in the same containers, or they were first grown separately as seedlings and transplanted into the test containers a few days prior to treatment. The rate of application for the post-emergence treatment was 15.6 or 7.8 g/ha active ingredient.
(§3) Depending on the species, the plants were kept at from 10-25° C. and 20-35° C., respectively. The test period extended over 2 to 4 weeks. During this time, the plants were tended, and their response to the individual treatments was evaluated.
(§4) Evaluation was carried out using a scale of from 0 to 100. 100 means no emergence of the plants, or complete destruction of at least the aerial parts, and 0 means no damage or normal course of growth.
(§5) The plants used in the greenhouse experiments belonged to the following species: […]

[2] = test system: Pharbitis purpurea (PHBPU), common or tall morningglory; test: as above; assay type: in vivo; conditions: 15.6 or 7.8 g/ha of a.i.
Protocol: as §1, §2, §3, §4, §5

[3] = test system: Polygonum persicaria (POLPE), redshank; ladysthumb; test: as above; assay type: in vivo; conditions: 15.6 or 7.8 g/ha of a.i.
Protocol: as §1, §2, §3, §4, §5

potato plants = test: Field trials of preharvest desiccant activity (Example 151); assay type: in vivo, Potatoes; conditions: EC formulation 120 grams a.i./liter applied to foliage a few weeks before harvest
Protocol: Field evaluations of preharvest desiccant activity were performed at several different locations using compound Ia.86. In each experiment treatments was replicated three times in a randomized complete block experimental design. Potatoes were grown using good agronomic practices of each area. Treatments were applied a few weeks before planned potato harvest. The test compound was formulated as an emulsifiable concentrate (EC) formulation with 120 grams a.i./liter. The formulation was diluted with water, spray adjuvants were added, and the treatment solution was applied to the foliage of potatoes in from 187 to 600 l/ha of total spray volume. Unless indicated otherwise, the treatments also contained […] of methylated seed oil adjuvant (Hasten or SUN-IT II. In the case of split applications, the second application was made about 1 week after the initial application. At various intervals after treatment, desiccation of stems and leaves was evaluated separately, on a visual % desiccation scale. In each test the test compound was compared to appropriate commercial standards at the normal rate for each standard for the area.

[4] = test system: ABUTH, Velvetleaf, Abutilon theophrasti, Medic.; test: Postemergence herbicidal evaluation (Example 147); assay type: in vivo; conditions: rating scale 0-9, two to three weeks after treatment
In short: (§6)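 Spray carrier: 80/20 acetone/water, 1.0% SUN-IT II methylated seed oil; rate about 0.016 to 0.032 kg/ha at 40 psi onto two-week seedlings. Assessment: plant stand, vigor, chlorosis and malformation scored 0-9 versus control, two to three weeks after treatment.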

[5] = test system: ALOMY, Blackgrass, Alopecurus myosuroides; test: Postemergence herbicidal evaluation (Example 147); assay type: in vivo; conditions: rating scale 0-9, two to three weeks after treatment
In short: as §6

[6] = test system: AMBEL, Ragweed, Common, Ambrosia artemiisifolia, L.; test: Postemergence herbicidal evaluation (Example 147); assay type: in vivo; conditions: rating scale 0-9, two to three weeks after treatment
In short: as §6

[7] = test system: CHEAL, Lambsquarters, Chenopodium album, L. Common; test: Postemergence herbicidal evaluation (Example 147); assay type: in vivo; conditions: rating scale 0-9, two to three weeks after treatment
In short: as §6

[8] = test system: DIGSA, Crabgrass, (Hairy) L, Digitaria sanguinalis, (L)Scop; test: Postemergence herbicidal evaluation (Example 147); assay type: in vivo; conditions: rating scale 0-9, two to three weeks after treatment
In short: as §6

[9] = test system: ECHCG, Barnyardgrass, Echinochloa crusgalli, (L.)Beau; test: Postemergence herbicidal evaluation (Example 147); assay type: in vivo; conditions: rating scale 0-9, two to three weeks after treatment
In short: as §6

[10] = test system: GLXMA, Soybean, Glycine max, (L.) Merr.; test: Postemergence herbicidal evaluation (Example 147); assay type: in vivo; conditions: rating scale 0-9, two to three weeks after treatment
In short: as §6

[11] = test system: IPOHE, Morningglory, Ivyleaf, Ipomoea hederacea, (L)Jacq.; test: Postemergence herbicidal evaluation (Example 147); assay type: in vivo; conditions: rating scale 0-9, two to three weeks after treatment
In short: as §6

[12] = test system: SETVI, Green foxtail, Setaria viridis, (L.)Beau; test: Postemergence herbicidal evaluation (Example 147); assay type: in vivo; conditions: rating scale 0-9, two to three weeks after treatment
In short: as §6

[13] = test system: TRZAW, Winter wheat, Tritium Aestivum, L. (Winter); test: Postemergence herbicidal evaluation (Example 147); assay type: in vivo; conditions: rating scale 0-9, two to three weeks after treatment
In short: as §6

[14] = test system: XANST, Cocklebur, Xanthium strumariam; test: Postemergence herbicidal evaluation (Example 147); assay type: in vivo; conditions: rating scale 0-9, two to three weeks after treatment
In short: as §6

[15] = test system: ZEAMX, Field corn, Zea mays L.; test: Postemergence herbicidal evaluation (Example 147); assay type: in vivo; conditions: rating scale 0-9, two to three weeks after treatment
In short: as §6

[16] = test system: ABUTH, Velvetleaf, Abutilon theophrasti, Medic.; test: Preemergence herbicidal evaluation (Example 148); assay type: in vivo; conditions: rating scale 0-9, two to four weeks after treatment
In short: (§7)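 Rate ~0.125–0.250 kg/ha, aqueous acetone spray onto soil post-sowing, pre-emergence. Greenhouse 2–4 wk. Visual injury score vs control; replicates averaged.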

[17] = test system: ALOMY, Blackgrass, Alopecurus myosuroides; test: Preemergence herbicidal evaluation (Example 148); assay type: in vivo; conditions: rating scale 0-9, two to four weeks after treatment
In short: as §7

[18] = test system: AMBEL, Ragweed, Common, Ambrosia artemiisifolia, L.; test: Preemergence herbicidal evaluation (Example 148); assay type: in vivo; conditions: rating scale 0-9, two to four weeks after treatment
In short: as §7

[19] = test system: CHEAL, Lambsquarters, Chenopodium album, L. Common; test: Preemergence herbicidal evaluation (Example 148); assay type: in vivo; conditions: rating scale 0-9, two to four weeks after treatment
In short: as §7

[20] = test system: DIGSA, Crabgrass, (Hairy) L, Digitaria sanguinalis, (L)Scop; test: Preemergence herbicidal evaluation (Example 148); assay type: in vivo; conditions: rating scale 0-9, two to four weeks after treatment
In short: as §7

[21] = test system: ECHCG, Barnyardgrass, Echinochloa crusgalli, (L.)Beau; test: Preemergence herbicidal evaluation (Example 148); assay type: in vivo; conditions: rating scale 0-9, two to four weeks after treatment
In short: as §7

[22] = test system: GLXMA, Soybean, Glycine max, (L.) Merr.; test: Preemergence herbicidal evaluation (Example 148); assay type: in vivo; conditions: rating scale 0-9, two to four weeks after treatment
In short: as §7

[23] = test system: IPOHE, Morningglory, Ivyleaf, Ipomoea hederacea, (L)Jacq.; test: Preemergence herbicidal evaluation (Example 148); assay type: in vivo; conditions: rating scale 0-9, two to four weeks after treatment
In short: as §7

[24] = test system: SETVI, Green foxtail, Setaria viridis, (L.)Beau; test: Preemergence herbicidal evaluation (Example 148); assay type: in vivo; conditions: rating scale 0-9, two to four weeks after treatment
In short: as §7

[25] = test system: TRZAW, Winter wheat, Tritium Aestivum, L. (Winter); test: Preemergence herbicidal evaluation (Example 148); assay type: in vivo; conditions: rating scale 0-9, two to four weeks after treatment
In short: as §7

[26] = test system: XANST, Cocklebur, Xanthium strumariam; test: Preemergence herbicidal evaluation (Example 148); assay type: in vivo; conditions: rating scale 0-9, two to four weeks after treatment
In short: as §7

[27] = test system: ZEAMX, Field corn, Zea mays L.; test: Preemergence herbicidal evaluation (Example 148); assay type: in vivo; conditions: rating scale 0-9, two to four weeks after treatment
In short: as §7

CC(C)N(C)S(=O)(=O)NC(=O)c1cc(-c2ncc(C(F)(F)F)cc2Cl)c(F)cc1Cl [Iy.86, N′-[[2-Chloro-5-[3-chloro-5-(trifluoromethyl)-2-pyridinyl]-4-fluorobenzoyl]]-N-isopropyl-N-methylsulfamide]
very good herbicial action: herbicidal action [1] | herbicidal action [2] | herbicidal action [3]

CC(C)N(C)S(=O)(=O)NC(=O)c1cc(-c2nn(C)c(OC(F)F)c2Cl)c(F)cc1Cl [Ip.86, 4-Chloro-3-[4-chloro-2-fluoro-5-(N-methyl-N-isopropyl)-sulfamoylcarboxamidophenyl]-5-difluoromethoxy-1-methyl-1H-pyrazole]
very good herbicial action: herbicidal action [1] | herbicidal action [2] | herbicidal action [3]

CC(C)N(C)S(=O)(=O)NC(=O)c1cc(-n2c(=O)n(C)c(=S)n(C)c2=O)c(F)cc1Cl [Ij.86, N′-[2-Chloro-5-(3,5-dimethyl-2,6-dioxo-4-thioxo-1,3,5-triazinan-1-yl)-4-fluorobenzoyl]-N-isopropyl-N-methylsulfamide]
very good herbicial action: herbicidal action [1] | herbicidal action [2] | herbicidal action [3]

CC(C)N(C)S(=O)(=O)NC(=O)c1cc(-n2c(=O)cc(C(F)(F)F)n(C)c2=O)c(F)cc1Cl [Ia.86]
very effective: desiccation of the leaves and stems of potato plants (potato plants)

CCC(C)N(C)S(=O)(=O)NC(=O)c1cc(-n2c(=O)cc(C(F)(F)F)n(C)c2=O)c(F)cc1Cl (stereo not shown) [Example 69]
7.5: Postemergence herbicidal rating ZEAMX ([15]; rate 0.032 kg/ha)
0.0: Preemergence herbicidal rating ALMOY ([17]; rate 0.125 kg/ha) | Preemergence herbicidal rating ALMOY ([17]; rate 0.25 kg/ha) | Preemergence herbicidal rating GLXMA ([22]; rate 0.125 kg/ha) | Preemergence herbicidal rating SETVI ([24]; rate 0.125 kg/ha) | Preemergence herbicidal rating TRZAW ([25]; rate 0.125 kg/ha) | Preemergence herbicidal rating TRZAW ([25]; rate 0.25 kg/ha)
3.0: Preemergence herbicidal rating DIGSA ([20]; rate 0.125 kg/ha) | Preemergence herbicidal rating DIGSA ([20]; rate 0.25 kg/ha) | Preemergence herbicidal rating ECHCG ([21]; rate 0.25 kg/ha) | Preemergence herbicidal rating GLXMA ([22]; rate 0.25 kg/ha) | Preemergence herbicidal rating XANST ([26]; rate 0.125 kg/ha) | Preemergence herbicidal rating ZEAMX ([27]; rate 0.25 kg/ha)
5.0: Postemergence herbicidal rating ECHCG ([9]; rate 0.016 kg/ha) | Postemergence herbicidal rating SETVI ([12]; rate 0.016 kg/ha) | Postemergence herbicidal rating TRZAW ([13]; rate 0.016 kg/ha)
8.0: Postemergence herbicidal rating CHEAL ([7]; rate 0.016 kg/ha) | Postemergence herbicidal rating CHEAL ([7]; rate 0.032 kg/ha) | Postemergence herbicidal rating GLXMA ([10]; rate 0.016 kg/ha) | Postemergence herbicidal rating GLXMA ([10]; rate 0.032 kg/ha) | Preemergence herbicidal rating AMBEL ([18]; rate 0.125 kg/ha)
6.0: Postemergence herbicidal rating DIGSA ([8]; rate 0.032 kg/ha) | Postemergence herbicidal rating SETVI ([12]; rate 0.032 kg/ha)
9.0: Postemergence herbicidal rating ABUTH ([4]; rate 0.016 kg/ha) | Postemergence herbicidal rating ABUTH ([4]; rate 0.032 kg/ha) | Postemergence herbicidal rating AMBEL ([6]; rate 0.016 kg/ha) | Postemergence herbicidal rating AMBEL ([6]; rate 0.032 kg/ha) | Postemergence herbicidal rating IPOHE ([11]; rate 0.016 kg/ha) | Postemergence herbicidal rating IPOHE ([11]; rate 0.032 kg/ha) | Postemergence herbicidal rating XANST ([14]; rate 0.016 kg/ha) | Postemergence herbicidal rating XANST ([14]; rate 0.032 kg/ha) | Preemergence herbicidal rating ABUTH ([16]; rate 0.125 kg/ha) | Preemergence herbicidal rating ABUTH ([16]; rate 0.25 kg/ha) | Preemergence herbicidal rating AMBEL ([18]; rate 0.25 kg/ha) | Preemergence herbicidal rating CHEAL ([19]; rate 0.125 kg/ha) | Preemergence herbicidal rating CHEAL ([19]; rate 0.25 kg/ha) | Preemergence herbicidal rating IPOHE ([23]; rate 0.125 kg/ha) | Preemergence herbicidal rating IPOHE ([23]; rate 0.25 kg/ha)
2.0: Postemergence herbicidal rating ALMOY ([5]; rate 0.032 kg/ha) | Preemergence herbicidal rating ECHCG ([21]; rate 0.125 kg/ha) | Preemergence herbicidal rating ZEAMX ([27]; rate 0.125 kg/ha)
4.0: Postemergence herbicidal rating DIGSA ([8]; rate 0.016 kg/ha) | Preemergence herbicidal rating XANST ([26]; rate 0.25 kg/ha)
1.0: Postemergence herbicidal rating ALMOY ([5]; rate 0.016 kg/ha) | Preemergence herbicidal rating SETVI ([24]; rate 0.25 kg/ha)
7.0: Postemergence herbicidal rating ECHCG ([9]; rate 0.032 kg/ha) | Postemergence herbicidal rating ZEAMX ([15]; rate 0.016 kg/ha)
6.5: Postemergence herbicidal rating TRZAW ([13]; rate 0.032 kg/ha)

From patent US6689773B2, “Uracil substituted phenyl sulfamoyl carboxamides” (BASF Aktiengesellschaft, priority 2000, dated 2004)
